ChEMBL document CHEMBL1944630, “Indomethacin Analogues that Enhance Doxorubicin Cytotoxicity in Multidrug Resistant Cells without Cox Inhibitory Activity” (ACS Med Chem Lett, 2011)
Activity calls are given as the source filed them. The calls are words filed in the database; no cut-off is given here.

Tests used:
[1] = biological target: T1, Prostaglandin G/H synthase 1 (Homo sapiens, UniProt P23219); assay: Inhibition of COX1 at 100 uM
[2] = biological target: T1, Prostaglandin G/H synthase 1; assay: Inhibition of COX1
[3] = biological target: T2, Prostaglandin G/H synthase 2 (Homo sapiens, UniProt P35354); assay: Inhibition of COX2
T2 sequence (P35354 whole entry): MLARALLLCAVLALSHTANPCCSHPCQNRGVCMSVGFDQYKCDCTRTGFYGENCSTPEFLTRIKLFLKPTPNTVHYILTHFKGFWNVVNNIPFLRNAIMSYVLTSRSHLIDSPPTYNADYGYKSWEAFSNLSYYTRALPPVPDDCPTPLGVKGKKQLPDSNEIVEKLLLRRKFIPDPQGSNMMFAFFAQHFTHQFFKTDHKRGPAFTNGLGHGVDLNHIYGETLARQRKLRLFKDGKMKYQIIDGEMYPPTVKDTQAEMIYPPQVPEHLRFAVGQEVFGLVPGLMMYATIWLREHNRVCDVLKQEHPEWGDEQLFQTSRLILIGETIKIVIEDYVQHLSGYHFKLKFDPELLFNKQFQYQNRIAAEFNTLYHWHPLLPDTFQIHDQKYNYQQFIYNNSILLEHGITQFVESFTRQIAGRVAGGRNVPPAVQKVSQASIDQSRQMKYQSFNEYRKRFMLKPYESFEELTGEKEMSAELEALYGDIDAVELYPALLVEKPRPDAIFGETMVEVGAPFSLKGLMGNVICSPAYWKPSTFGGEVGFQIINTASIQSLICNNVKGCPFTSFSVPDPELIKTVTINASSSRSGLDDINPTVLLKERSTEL

T98G [4] = assay: Cytotoxicity against multidrug-resistant human T98G cells expressing MRP-1 at 50 uM after 3 days by crystal violet staining analysis; assay type: cell-based; details: 72 h
T98G [5] = assay: Potentiation of doxorubicin-induced cytotoxicity against multidrug-resistant human T98G cells expressing MRP-1 at 50 uM pretreated for 2 hrs prior addition of doxorubicin measured after 3 days by crystal violet staining analysis; assay type: functional, cell-based

T1 sequence (P23219 whole entry): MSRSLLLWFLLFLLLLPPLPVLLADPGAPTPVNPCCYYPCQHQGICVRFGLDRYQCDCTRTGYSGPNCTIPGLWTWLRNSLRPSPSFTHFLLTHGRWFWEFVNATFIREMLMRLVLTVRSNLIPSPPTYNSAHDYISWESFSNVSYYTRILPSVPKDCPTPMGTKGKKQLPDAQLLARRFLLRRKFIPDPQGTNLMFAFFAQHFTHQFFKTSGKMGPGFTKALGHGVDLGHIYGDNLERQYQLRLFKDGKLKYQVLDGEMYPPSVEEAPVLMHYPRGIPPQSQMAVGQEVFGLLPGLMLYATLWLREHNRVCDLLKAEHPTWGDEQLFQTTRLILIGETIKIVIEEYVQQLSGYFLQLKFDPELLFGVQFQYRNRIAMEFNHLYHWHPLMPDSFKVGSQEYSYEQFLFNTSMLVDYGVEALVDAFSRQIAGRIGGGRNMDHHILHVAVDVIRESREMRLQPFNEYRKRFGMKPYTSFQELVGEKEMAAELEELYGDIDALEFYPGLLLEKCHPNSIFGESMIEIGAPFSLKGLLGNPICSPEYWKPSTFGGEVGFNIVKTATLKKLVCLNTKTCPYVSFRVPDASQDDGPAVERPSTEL

SMILES	inhibition [1] [%]	IC50 [2] [µM]	IC50 [3] [µM]	Activity (T98G [4])	Activity (T98G [5])
Cc1c(CC(=O)O)c2ccccc2n1C(=O)c1ccc(Cl)cc1	79	0.01	39		
CC(=O)Oc1ccccc1C(=O)O	38				
CCc1c(CC(=O)O)c2ccccc2n1C(=O)c1ccc(Cl)cc1	< 0	> 400	> 400	Non-toxic	Active
O=C(O)Cc1c(-c2ccccc2)n(C(=O)c2ccc(Cl)cc2)c2ccccc12	< 0	> 400	> 400	Non-toxic	Active
